Laboratory results published in ChEMBL document CHEMBL1201862, “PubChem BioAssay data set” (2004).
Calls of active or inactive are those of the source.

Key:
[1] = biological target: T1, Mannose-6-phosphate isomerase (Homo sapiens, UniProt P34949); test: human PMI inhibitors, high substrate, primary screen, biochemical, fluorescence intensity, high mannose 6-phosphate (AID 1220)
T1 sequence (P34949 whole entry): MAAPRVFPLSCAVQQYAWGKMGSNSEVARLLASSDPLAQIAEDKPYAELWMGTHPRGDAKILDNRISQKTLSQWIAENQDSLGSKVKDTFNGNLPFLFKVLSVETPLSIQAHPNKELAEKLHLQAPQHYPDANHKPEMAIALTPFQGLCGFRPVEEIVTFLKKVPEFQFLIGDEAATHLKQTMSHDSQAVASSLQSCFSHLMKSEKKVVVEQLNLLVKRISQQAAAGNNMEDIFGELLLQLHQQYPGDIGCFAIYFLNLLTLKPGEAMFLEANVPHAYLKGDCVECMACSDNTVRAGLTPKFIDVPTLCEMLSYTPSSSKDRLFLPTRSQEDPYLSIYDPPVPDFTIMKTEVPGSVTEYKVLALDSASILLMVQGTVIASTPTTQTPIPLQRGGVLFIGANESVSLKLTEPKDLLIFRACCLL

[2] = biological target: Lysine-specific demethylase 4C (Homo sapiens, UniProt Q9H3R0); test: GASC-1 (JMJD2C) histone demethylase inhibitors, dose response, biochemical, DELFIA europium, cherry-picked samples (AID 488835); format: functional
Lysine-specific demethylase 4C, sequence (Q9H3R0 whole entry): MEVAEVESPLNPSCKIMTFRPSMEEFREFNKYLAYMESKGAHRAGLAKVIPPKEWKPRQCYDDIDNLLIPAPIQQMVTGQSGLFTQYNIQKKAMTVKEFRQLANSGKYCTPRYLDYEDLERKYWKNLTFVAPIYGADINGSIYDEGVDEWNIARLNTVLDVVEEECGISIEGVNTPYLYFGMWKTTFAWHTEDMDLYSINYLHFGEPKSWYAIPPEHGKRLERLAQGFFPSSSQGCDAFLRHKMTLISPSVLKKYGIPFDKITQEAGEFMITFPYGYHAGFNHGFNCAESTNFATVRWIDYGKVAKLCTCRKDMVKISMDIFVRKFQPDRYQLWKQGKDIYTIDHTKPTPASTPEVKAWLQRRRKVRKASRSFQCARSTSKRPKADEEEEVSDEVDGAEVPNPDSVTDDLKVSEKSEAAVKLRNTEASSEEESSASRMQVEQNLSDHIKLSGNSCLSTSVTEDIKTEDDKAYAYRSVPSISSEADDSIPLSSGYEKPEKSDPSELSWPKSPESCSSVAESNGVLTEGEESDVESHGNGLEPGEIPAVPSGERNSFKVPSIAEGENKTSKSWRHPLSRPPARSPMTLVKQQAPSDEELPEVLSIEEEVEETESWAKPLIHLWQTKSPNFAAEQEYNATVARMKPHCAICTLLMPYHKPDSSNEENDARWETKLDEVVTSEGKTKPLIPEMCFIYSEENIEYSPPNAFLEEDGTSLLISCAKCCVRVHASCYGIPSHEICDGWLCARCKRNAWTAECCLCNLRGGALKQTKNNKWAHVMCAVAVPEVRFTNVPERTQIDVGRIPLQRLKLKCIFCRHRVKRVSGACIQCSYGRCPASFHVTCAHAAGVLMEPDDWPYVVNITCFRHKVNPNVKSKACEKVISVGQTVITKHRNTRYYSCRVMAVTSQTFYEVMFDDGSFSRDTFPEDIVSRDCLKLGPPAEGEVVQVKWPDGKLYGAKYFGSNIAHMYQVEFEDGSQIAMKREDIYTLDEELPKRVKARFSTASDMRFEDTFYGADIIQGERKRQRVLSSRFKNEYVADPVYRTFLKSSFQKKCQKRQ

[3] = THP-1 cell cytotoxicity, dose response, cytotoxicity control for Vif-APOBEC3G degradation inhibitor project, THP-1 cells (AID 1117359); format: functional; conditions: Human immunodeficiency virus 1, THP-1
[4] = biological target: DNA dC->dU-editing enzyme APOBEC-3A (Homo sapiens, UniProt P31941); test: APOBEC3A DNA deaminase inhibitors, dose response, biochemical (AID 504722); format: functional
DNA dC->dU-editing enzyme APOBEC-3A, sequence (P31941 whole entry): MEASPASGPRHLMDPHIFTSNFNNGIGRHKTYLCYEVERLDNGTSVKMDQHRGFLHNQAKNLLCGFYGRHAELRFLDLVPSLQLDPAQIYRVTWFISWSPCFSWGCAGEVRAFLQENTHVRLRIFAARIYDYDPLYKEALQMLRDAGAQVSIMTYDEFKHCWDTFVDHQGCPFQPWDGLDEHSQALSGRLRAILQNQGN

[5] = biological target: Glucose-6-phosphate 1-dehydrogenase (Homo sapiens, UniProt P11413); test: human G6PD enzyme inhibitors, dose response, selectivity assay for P. falciparum G6PD inhibitor project, biochemical, fluorescence (AID 504792); format: functional
[6] = biological target: DNA dC->dU-editing enzyme APOBEC-3G (Homo sapiens, UniProt Q9HC16); test: Dose Response confirmation of small molecule APOBEC3G DNA Deaminase Inhibitors via a fluorescence-based single-stranded DNA deaminase assay. [Related pubchem assays (depositor defined):AID493012, AID493028]; format: functional
[7] = biological target: T2, Mu-type opioid receptor (Homo sapiens, UniProt P35372); test: MOR agonists by imaging, SAR follow-up, image-based (AID 2352); format: functional
T2 sequence (P35372 whole entry): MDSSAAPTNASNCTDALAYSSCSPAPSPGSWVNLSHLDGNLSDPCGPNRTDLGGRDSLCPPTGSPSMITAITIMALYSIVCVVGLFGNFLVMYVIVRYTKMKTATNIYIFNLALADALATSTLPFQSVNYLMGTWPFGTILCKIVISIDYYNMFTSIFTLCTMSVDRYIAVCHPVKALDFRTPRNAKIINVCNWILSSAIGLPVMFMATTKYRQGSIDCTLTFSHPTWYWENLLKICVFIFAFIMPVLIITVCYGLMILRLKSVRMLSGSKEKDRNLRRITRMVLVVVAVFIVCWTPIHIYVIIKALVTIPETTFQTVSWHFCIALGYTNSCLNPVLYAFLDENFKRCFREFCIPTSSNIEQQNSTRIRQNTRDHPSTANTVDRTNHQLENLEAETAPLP

[8] = biological target: T3, Delta-type opioid receptor (Homo sapiens, UniProt P41143); test: DOR agonists, SAR follow-up, image-based (AID 2370); format: functional
T3 sequence (P41143 whole entry): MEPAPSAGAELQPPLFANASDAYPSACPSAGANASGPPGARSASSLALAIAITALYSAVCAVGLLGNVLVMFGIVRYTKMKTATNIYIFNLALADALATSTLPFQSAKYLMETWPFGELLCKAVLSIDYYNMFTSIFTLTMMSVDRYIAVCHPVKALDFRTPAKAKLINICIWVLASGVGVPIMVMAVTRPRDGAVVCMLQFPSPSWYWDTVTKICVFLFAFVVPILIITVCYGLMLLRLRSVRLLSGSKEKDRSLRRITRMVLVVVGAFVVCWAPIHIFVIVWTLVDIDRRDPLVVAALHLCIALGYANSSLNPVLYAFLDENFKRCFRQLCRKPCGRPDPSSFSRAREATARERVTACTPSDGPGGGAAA

[9] = biological target: T4, Kappa-type opioid receptor (Homo sapiens, UniProt P41145); test: KOR antagonists by imaging, SAR follow-up, image-based (AID 2348); format: functional
T4 sequence (P41145 whole entry): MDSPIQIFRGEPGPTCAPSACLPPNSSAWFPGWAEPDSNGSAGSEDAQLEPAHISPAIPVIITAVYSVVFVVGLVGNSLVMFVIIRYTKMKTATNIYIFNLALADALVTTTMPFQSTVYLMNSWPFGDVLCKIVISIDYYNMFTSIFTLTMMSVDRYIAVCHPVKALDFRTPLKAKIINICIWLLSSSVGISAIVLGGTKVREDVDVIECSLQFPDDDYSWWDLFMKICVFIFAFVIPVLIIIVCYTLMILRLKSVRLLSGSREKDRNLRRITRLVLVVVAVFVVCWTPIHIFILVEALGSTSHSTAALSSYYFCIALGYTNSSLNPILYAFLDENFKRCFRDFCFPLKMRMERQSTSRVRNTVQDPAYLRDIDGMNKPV

[10] = biological target: T2, Mu-type opioid receptor; test: MOR antagonists, SAR follow-up, image-based (AID 2420); format: functional;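 also: compounds added before stimulation of receptor with agonist DAMGO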
[11] = biological target: T4, Kappa-type opioid receptor; test: KOR agonist analogs, imaging readout, SAR follow-up, image-based (AID 2359); format: functional
[12] = biological target: T3, Delta-type opioid receptor; test: DOR antagonists, SAR follow-up, image-based (AID 2357); format: functional
[13] = biological target: T4, Kappa-type opioid receptor; test: kappa opioid receptor blockers, cell-based, luminescence, beta-arrestin, SAR follow-up (AID 2285); format: functional
[14] = system: Streptococcus sp. 'group A'; test: growth inhibition of control SK(-) GAS strain, dose response, counter-screen for streptokinase expression inhibitor project, luminescence, kanamycin, BacTiterGlo, confirmation (AID 1900); format: functional, organism-based
[15] = biological target: T5, Streptokinase A (Streptococcus pyogenes serotype M1, UniProt P10520); test: S. pyogenes streptokinase expression inhibitors, potency, dose response, plasminogen activation absorbance, OD405 (AID 1914); format: functional, Streptococcus pyogenes M1 GAS;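 also: secreted streptokinase activity via plasminogen activation per viability signal from cell pellet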
T5 sequence (P10520 whole entry): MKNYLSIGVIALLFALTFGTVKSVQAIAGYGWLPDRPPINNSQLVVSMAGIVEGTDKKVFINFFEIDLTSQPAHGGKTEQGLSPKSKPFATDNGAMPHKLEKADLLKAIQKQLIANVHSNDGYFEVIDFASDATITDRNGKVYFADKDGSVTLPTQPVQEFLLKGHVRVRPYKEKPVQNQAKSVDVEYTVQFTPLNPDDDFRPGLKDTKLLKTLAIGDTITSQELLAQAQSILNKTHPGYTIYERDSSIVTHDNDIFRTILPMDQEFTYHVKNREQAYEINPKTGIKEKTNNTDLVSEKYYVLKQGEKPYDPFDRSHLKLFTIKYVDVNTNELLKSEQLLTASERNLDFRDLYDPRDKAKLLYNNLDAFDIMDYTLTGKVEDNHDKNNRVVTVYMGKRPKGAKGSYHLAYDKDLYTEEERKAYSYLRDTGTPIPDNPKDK

[16] = inhibitors of intracellular T. cruzi replication, confirmation, NIH3T3 host cells, beta-gal luminescence (AID 2044); format: functional, cell-based;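 also: intracellular parasites grown in NIH/3T3 mouse fibroblasts as host cells; luminescent beta-galactosidase reporter signal from transgenic T. cruzi replicating inside host cells; inhibitors lower the luminescence signal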
[17] = biological target: T4, Kappa-type opioid receptor; format: functional
[18] = cytotoxicity toward NIH3T3 fibroblasts, dose response, counter-screen, cell-based, ATP luminescence, mouse fibroblasts (AID 2010); format: functional;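 also: cells exposed to compound for about 90 hours before reading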
[19] = biological target: Beta-galactosidase (Escherichia coli, UniProt Q8VNN2); format: functional
[20] = biological target: T4, Kappa-type opioid receptor; format: functional; remark: listed apart in the source
[21] = system: Streptococcus; test: Group A Streptococcus viability loss, dose response, counter-screen for streptokinase expression inhibitor project, luminescence, BacTiterGlo (AID 1915); format: functional, organism-based;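 also: potency for reduction of bacterial viability or growth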
[22] = biological target: T6, Polyadenylate-binding protein 1 (Homo sapiens, UniProt P11940); test: PABP1 MLLE–PAM2 interaction inhibitors, dose response, miRNA deadenylation inhibitor project, biochemical, fluorescence polarization, Cy5-PAM2 peptide, secondary (AID 602260); format: functional; conditions: read-out: IC50_Mean
T6 sequence (P11940 whole entry): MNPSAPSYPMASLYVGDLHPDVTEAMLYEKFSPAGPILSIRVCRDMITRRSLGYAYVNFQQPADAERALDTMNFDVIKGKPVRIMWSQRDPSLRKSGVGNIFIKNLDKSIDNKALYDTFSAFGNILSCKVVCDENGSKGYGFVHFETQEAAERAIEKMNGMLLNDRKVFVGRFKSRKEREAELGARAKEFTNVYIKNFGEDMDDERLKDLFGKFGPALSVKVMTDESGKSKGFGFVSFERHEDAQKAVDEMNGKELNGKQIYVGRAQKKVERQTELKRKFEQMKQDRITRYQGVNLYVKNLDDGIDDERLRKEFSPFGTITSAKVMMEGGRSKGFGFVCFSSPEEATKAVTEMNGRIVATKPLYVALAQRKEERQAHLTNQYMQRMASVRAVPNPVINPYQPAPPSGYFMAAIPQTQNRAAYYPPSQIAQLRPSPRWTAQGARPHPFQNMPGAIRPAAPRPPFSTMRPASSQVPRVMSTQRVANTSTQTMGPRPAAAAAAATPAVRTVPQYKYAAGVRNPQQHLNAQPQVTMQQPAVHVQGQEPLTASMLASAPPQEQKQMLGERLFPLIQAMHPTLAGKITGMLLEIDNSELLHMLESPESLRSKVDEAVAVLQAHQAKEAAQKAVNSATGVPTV

[23] = biological target: T6, Polyadenylate-binding protein 1; test: PABP1 MLLE–PAM2 binding inhibitor potency, dose response, biochemical, fluorescence polarization, FITC-PAM2 peptide (AID 602259); format: functional; conditions: read-out: IC50_Mean
[24] = HepG2 cell cytotoxicity, dose response, cytotoxicity control for Shn3 inhibitor project, CellTiter-Glo, cherry-picked (AID 624134); format: functional, cell-based
[25] = control 3'UTR Renilla luciferase suppression, dose response, counter-screen for Shn3 inhibitor project, cell-based, Clone20-Shn3RL, cherry-picked (AID 624133); format: functional
[26] = biological target: Peroxisome proliferator-activated receptor gamma/Nuclear receptor coactivator 1 (Homo sapiens, UniProt P37231); test: TR-FRET dose response biochemical High Throughput Screening assay for agonists of the steroid receptor coactivator 1 (SRC-1) recruitment by the peroxisome proliferator-activated receptor gamma (PPAR gamma): non-selective agonists. [Related pubchem assays (depositor defined):AID1300, AID1808, AID504735, AID631]; format: protein assay
[27] = biological target: Peroxisome proliferator-activated receptor gamma/Nuclear receptor coactivator 3 (Homo sapiens, UniProt P37231); test: TR-FRET dose response biochemical High Throughput Screening assay for agonists of the steroid receptor coactivator 3 (SRC-3) recruitment by the peroxisome proliferator-activated receptor gamma (PPAR gamma): non-selective agonists. [Related pubchem assays: 1301 (Confirmation screen.), 1048 (Primary screen.)]; format: functional
Peroxisome proliferator-activated receptor gamma/Nuclear receptor coactivator 3, sequence (P37231 whole entry): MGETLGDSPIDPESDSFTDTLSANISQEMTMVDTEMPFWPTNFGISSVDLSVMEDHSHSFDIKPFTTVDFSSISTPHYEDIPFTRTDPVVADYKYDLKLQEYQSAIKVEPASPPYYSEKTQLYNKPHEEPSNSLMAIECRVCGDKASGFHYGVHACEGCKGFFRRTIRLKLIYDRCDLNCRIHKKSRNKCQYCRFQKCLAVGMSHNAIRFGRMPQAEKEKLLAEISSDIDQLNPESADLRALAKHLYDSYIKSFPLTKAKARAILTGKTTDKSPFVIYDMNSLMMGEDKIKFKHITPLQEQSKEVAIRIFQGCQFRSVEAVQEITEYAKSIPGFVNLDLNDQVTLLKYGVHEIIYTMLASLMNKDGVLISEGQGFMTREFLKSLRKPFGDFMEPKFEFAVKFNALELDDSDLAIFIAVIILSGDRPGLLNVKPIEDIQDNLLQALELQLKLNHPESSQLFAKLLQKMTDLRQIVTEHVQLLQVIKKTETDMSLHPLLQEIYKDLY
Peroxisome proliferator-activated receptor gamma/Nuclear receptor coactivator 3, sequence (Q9Y6Q9 whole entry, further chain): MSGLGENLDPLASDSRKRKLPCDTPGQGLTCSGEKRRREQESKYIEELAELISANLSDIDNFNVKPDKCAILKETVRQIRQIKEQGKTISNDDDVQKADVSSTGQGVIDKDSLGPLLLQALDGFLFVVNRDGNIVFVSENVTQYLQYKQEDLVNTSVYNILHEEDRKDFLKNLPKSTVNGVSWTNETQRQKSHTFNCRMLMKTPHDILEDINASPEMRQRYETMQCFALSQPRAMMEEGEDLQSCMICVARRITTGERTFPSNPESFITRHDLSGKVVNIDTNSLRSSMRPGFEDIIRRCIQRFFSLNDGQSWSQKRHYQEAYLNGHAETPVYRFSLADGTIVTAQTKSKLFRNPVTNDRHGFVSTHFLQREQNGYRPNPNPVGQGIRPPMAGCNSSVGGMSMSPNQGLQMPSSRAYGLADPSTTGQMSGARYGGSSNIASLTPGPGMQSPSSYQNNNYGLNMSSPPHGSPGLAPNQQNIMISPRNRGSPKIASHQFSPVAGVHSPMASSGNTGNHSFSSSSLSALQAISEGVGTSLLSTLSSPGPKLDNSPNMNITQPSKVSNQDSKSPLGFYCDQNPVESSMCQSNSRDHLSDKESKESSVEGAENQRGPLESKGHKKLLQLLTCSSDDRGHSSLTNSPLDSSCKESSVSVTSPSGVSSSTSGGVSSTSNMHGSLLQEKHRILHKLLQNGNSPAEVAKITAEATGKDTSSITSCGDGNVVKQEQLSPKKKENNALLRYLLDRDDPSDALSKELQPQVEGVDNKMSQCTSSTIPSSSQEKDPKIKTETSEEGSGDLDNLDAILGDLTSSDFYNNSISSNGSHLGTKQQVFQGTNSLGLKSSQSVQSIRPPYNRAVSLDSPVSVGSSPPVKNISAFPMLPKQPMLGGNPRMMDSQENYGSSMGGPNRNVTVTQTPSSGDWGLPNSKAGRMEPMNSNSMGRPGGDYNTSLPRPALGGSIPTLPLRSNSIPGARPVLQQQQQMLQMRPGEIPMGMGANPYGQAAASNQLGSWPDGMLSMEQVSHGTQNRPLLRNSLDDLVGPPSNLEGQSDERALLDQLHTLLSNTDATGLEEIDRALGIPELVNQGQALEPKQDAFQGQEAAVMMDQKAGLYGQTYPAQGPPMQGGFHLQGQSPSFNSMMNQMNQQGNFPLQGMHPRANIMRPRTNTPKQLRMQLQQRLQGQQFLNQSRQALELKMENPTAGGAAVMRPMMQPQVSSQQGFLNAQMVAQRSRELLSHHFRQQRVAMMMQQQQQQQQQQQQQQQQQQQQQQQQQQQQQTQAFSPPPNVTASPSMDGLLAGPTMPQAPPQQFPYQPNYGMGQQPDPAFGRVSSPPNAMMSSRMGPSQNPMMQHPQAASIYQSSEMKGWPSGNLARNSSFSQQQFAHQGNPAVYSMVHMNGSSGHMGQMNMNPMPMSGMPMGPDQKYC

[28] = biological target: Peroxisome proliferator-activated receptor gamma/Nuclear receptor coactivator 2 (Homo sapiens, UniProt P37231); test: TR-FRET dose response biochemical High Throughput Screening assay for agonists of the steroid receptor coactivator 2 (SRC-2) recruitment by the peroxisome proliferator-activated receptor gamma (PPAR gamma): non-selective agonists. [Related pubchem assays: 1297, 1032 ]; format: functional
[29] = biological target: Tumor necrosis factor (Homo sapiens, UniProt P01375); test: TNFa-triggered NF-kB activation inhibitors, SAR follow-up, cell-based, revised (AID 2337); format: functional
[30] = biological target: T7, Nucleotide-binding oligomerization domain-containing protein 1 (Homo sapiens, UniProt Q9Y239); test: NOD1 signaling inhibitors, SAR follow-up, revised (AID 2333); format: functional
T7 sequence (Q9Y239 whole entry): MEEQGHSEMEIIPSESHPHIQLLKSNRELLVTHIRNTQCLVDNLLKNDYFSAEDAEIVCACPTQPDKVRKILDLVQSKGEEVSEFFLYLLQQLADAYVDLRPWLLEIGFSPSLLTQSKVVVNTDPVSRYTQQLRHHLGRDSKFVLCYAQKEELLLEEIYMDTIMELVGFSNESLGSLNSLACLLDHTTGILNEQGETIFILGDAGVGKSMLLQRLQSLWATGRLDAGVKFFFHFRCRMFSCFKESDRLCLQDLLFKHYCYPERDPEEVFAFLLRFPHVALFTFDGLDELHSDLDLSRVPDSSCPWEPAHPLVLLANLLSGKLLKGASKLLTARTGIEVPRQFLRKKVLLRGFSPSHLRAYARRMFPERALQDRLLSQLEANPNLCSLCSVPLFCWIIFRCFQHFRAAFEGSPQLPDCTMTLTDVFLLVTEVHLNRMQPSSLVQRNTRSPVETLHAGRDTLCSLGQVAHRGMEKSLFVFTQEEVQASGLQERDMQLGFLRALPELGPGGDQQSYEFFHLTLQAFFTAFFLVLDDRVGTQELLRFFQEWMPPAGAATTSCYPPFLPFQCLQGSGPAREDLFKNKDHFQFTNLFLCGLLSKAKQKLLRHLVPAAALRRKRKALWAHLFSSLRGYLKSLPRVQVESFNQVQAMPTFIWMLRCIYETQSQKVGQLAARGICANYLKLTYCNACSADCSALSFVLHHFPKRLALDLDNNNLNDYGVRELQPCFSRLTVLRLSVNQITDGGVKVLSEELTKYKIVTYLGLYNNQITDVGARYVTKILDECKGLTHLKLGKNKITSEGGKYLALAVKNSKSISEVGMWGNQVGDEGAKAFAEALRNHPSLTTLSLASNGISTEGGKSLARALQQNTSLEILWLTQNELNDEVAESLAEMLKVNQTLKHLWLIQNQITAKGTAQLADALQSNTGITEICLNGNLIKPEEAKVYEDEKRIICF

[31] = system: HEK293; test: cells; conditions: Homo sapiens;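 also: cells exposed to compound for 14 hours overnight before viability readout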
[32] = biological target: Peroxisome proliferator-activated receptor gamma/Nuclear receptor corepressor 2 (Homo sapiens, UniProt P37231+Q9Y618); test: Counterscreen for NR2E3 inverse agonists: TR-FRET-based biochemical high throughput dose response assay to identify inverse agonists of the interaction between peroxisome proliferator-activated receptor gamma (PPARg) and nuclear receptor co-repressor 2 (NCOR2).; format: functional
[33] = biological target: Photoreceptor-specific nuclear receptor (Homo sapiens, UniProt Q9Y5X4); test: NR2E3 inverse agonists, dose response, biochemical, TR-FRET (AID 463256); format: functional

Oc1cccc(/C=N/NC(=S)NCCN2CCOCC2)c1O
IC50 [1]: 23.6 µM (active)
AC50 [2]: 4.02 µM (active)
CC50 [3]: 17.9 µM (active)

O=S(=O)(Nc1ccccc1F)c1cccc(NC(=S)NCCN2CCOCC2)c1
IC50 [4]: > 100 µM (inactive)
IC50 [5]: > 80 µM (inactive)
IC50 [6]: 7.38 µM (active)
AC50 [2]: 8.95 µM (active)

Cc1ccc(S(=O)(=O)NCc2ccc(C(=O)N3CCN(Cc4ccccc4)CC3)cc2)cc1
EC50 [7]: > 32 µM (inactive)
EC50 [8]: > 32 µM (inactive)
IC50 [9]: > 32 µM (inactive)
IC50 [10]: > 32 µM (inactive)
EC50 [11]: > 32 µM (inactive)
IC50 [12]: > 32 µM (inactive)
IC50 [13]: > 10 µM (inactive)

O=C(NC(NC(=S)Nc1c(Cl)cc(Cl)cc1Cl)C(Cl)(Cl)Cl)OCc1ccccc1 (centres undefined)
EC50 [14]: 0.562 µM (active)
EC50 [15]: 1.83 µM (active)
EC50 [16]: 1.65 µM (active)
IC50 [17]: 1.88 µM (active)
EC50 [18]: > 60 µM (not active)
EC50 [19]: > 31.5 µM (inactive)
IC50 [20]: 0.63 µM
EC50 [21]: 39.3 µM (inconclusive)
EC50 [7]: > 32 µM (inactive)
EC50 [8]: > 32 µM (inactive)
IC50 [9]: 0.517 µM (active)
IC50 [10]: > 32 µM (inactive)
EC50 [11]: > 32 µM (inactive)
IC50 [12]: > 32 µM (inactive)
IC50 [13]: 0.846 µM (active)
IC50 [22]: > 66 µM (inactive)
IC50 [23]: > 66 µM (inactive)
AC50 [24]: 18.5 µM (active)
AC50 [25]: 2.04 µM (active)

Cn1c(=O)cc(SCC(=O)NCc2ccco2)c2ccccc21
EC50 [26]: > 79.4 µM (inactive)
EC50 [27]: > 79.4 µM (not active)
EC50 [28]: > 79.4 µM (not active)

COC(=O)CC1=NN(c2nc3ccccc3s2)C(=O)/C1=C(/C)Nc1ccc(Cl)cc1
IC50 [29]: 0.0369 µM (active)
IC50 [30]: < 0.0391 µM (active)
IC50 [31]: > 20 µM (inactive)

COc1ccc(-c2cn3c(C)c(C(=O)Nc4cc(NC(C)=O)ccc4OC)sc3n2)cc1
EC50 [26]: 12.9 µM (inactive)
EC50 [27]: > 79.4 µM (not active)
IC50 [32]: 18 µM (not active)
IC50 [33]: 23.2 µM (not active)
EC50 [28]: 15 µM (not active)
